Test results: US20130178469A1, “NOVEL ANTIVIRAL AGENTS” (SHANGHAI INSTITUTE OF ORGANIC CHEMISTRY (SIOC), priority 2010, published 2013)
Where two headings read alike, the source gives them in different places.

Legend:
[1] = Clinical Observation following intravenous and oral administration; format: in vivo, Male Sprague Dawley Rats
Description: (§1) Method: For IV infusion over 10 minutes the compound of Example 3.4 was dissolved in 20% DMSO, 30% PEG400 and 50% Water. For oral (PO) dosing AVX62738 was dissolved in 0.5% benzyl alcohol and 0.4% Tween 80 and 99.1% 0.5% hydroxypropylmethylcellulose. Compounds were dosed IV and then after a one week washout, orally in the same rats. (Body weight: Rat 1: 254.7 g; Rat 2: 253.4 g). Ex-vivo plasma samples were assayed for AVX62738 using an LC-ms method of Lower limit of quantitation. (LLOQ)=2.5 ng/mL.

[2] = Bioavailability and pharmacokinetic profile following intravenous and oral administration; format: in vivo, Male Sprague Dawley Rats; conditions: for MRT inf: read-out: MRT(0-∞); for Vd: read-out: Vz
Description: as §1

HIV-1 = test: Luciferase Assay with single-round reporter virus (NLXLuc or HIV-Luc); format: cell-based; conditions: Human immunodeficiency virus 1
Text: Infectivity assays using reporter viruses derived from lentiviral vectors capable of a single round of infection were used to determine the activity (EC50) of compounds. The DNA used to generate viruses for infection was the full-length HIV-1 genome which had been envelope-deleted. In addition, a reporter gene (the firefly luciferase gene from Photinus pyralis) was cloned into the nefregion of the HIV backbone for ease of assay readout. […]. Culture supernatants containing VSV-G pseudotyped virions were harvested 64 h post transfection, clarified by centrifugation to remove cell debris, and frozen at −70° C. until use.
293FT cells were plated out at 12000 cells per well in CellView 96-well cell culture plates (Invitrogen) 16 h prior to compound addition. Compounds were preincubated with cells for 4 h at 37° C. prior to the addition of virus sufficient to generate approximately 10000 Luciferase light units (as measured by the Victor Wallace luminometer) upon assaying using the Bright-Glo™ reagent (Promega) according to the manufacturer's instructions at 48 h post infection.
In the tables below, this assay is referred to as NLXLuc or HIV-Luc.

[3] = male, Sprague Dawley, rat, plasma, iv, 5 mg/kg, IV 5 mg/kg, Mean
[4] = male, Sprague Dawley, rat, plasma, iv, 5 mg/kg, IV 5 mg/kg, Rat 1
[5] = male, Sprague Dawley, rat, plasma, iv, 5 mg/kg, IV 5 mg/kg, Rat 2
[6] = male, Sprague Dawley, rat, plasma, iv, 5 mg/kg, IV (5 mg/kg), Mean
[7] = male, Sprague Dawley, rat, plasma, iv, 5 mg/kg, IV (5 mg/kg), animal 701
[8] = male, Sprague Dawley, rat, plasma, po, 10 mg/kg, PO 10 mg/kg, Mean
[9] = male, Sprague Dawley, rat, plasma, po, 10 mg/kg, PO 10 mg/kg, Rat 1
[10] = male, Sprague Dawley, rat, plasma, po, 10 mg/kg, PO 10 mg/kg, Rat 2
[11] = male, Sprague Dawley, rat, plasma, po, 10 mg/kg, PO (10 mg/kg), Mean
[12] = male, Sprague Dawley, rat, plasma, po, 10 mg/kg, PO (10 mg/kg), animal 801
[13] = male, Sprague Dawley, rat, plasma, po, 10 mg/kg, PO (10 mg/kg), animal 802
[14] = male, Sprague-Dawley, rat, plasma, iv, 5 mg/kg, IV (5 mg/kg), animal 701
[15] = male, Sprague-Dawley, rat, plasma, iv, 5 mg/kg, IV (5 mg/kg), animal 702

CN1CCN(c2cc(N3CCN(C)S3(=O)=O)c3nc(C(=O)NCc4ccc(F)cc4)c(O)c(=O)n3c2)CC1 [Example 3.4, 3-Hydroxy-9-(5-methyl-1,1-dioxo-1,6-[1,2,5]thiadiazolidin-2-yl)-7-(4-methyl-piperazin-1-yl)-4-oxo-4H-pyrido[1,2-a]pyrimidine-2-carboxylic acid 4-fluoro-benzylamide]
Clinical Observation ([1]; following intravenous administration (5 mg/kg)): Following intravenous administration, no obvious abnormalities were
Clinical Observation ([1]; following oral administration (10 mg/kg)): Following oral administration, no obvious abnormalities were observed.
Plasma Concentration ([2]; IV 5 mg/kg, Rat 1, 24 hr): BLQ (BLQ: Below limit of quantitation)
Plasma Concentration ([2]; IV 5 mg/kg, Rat 1, Pre-dose): BLQ (BLQ: Below limit of quantitation)
Plasma Concentration ([2]; IV 5 mg/kg, Rat 2, 24 hr): BLQ (BLQ: Below limit of quantitation)
Plasma Concentration ([2]; IV 5 mg/kg, Rat 2, Pre-dose): BLQ (BLQ: Below limit of quantitation)
CLz ([2]; IV (5 mg/kg), Mean): 44.8 mL/min/kg
t1/2z ([2]; IV (5 mg/kg), Mean): 80.4 min
CLz ([2]; IV (5 mg/kg), animal 701): 44.8 mL/min/kg
t1/2z ([2]; IV (5 mg/kg), animal 701): 83.4 min
CLz ([2]; IV (5 mg/kg), animal 702): 44.8 mL/min/kg
t1/2z ([2]; IV (5 mg/kg), animal 702): 77.4 min
Plasma Concentration ([2]; PO 10 mg/kg, Rat 1, Pre-dose): BLQ (BLQ: Below limit of quantitation)
Plasma Concentration ([2]; PO 10 mg/kg, Rat 2, 6 hr): BLQ (BLQ: Below limit of quantitation)
Plasma Concentration ([2]; PO 10 mg/kg, Rat 2, 8 hr): BLQ (BLQ: Below limit of quantitation)
Plasma Concentration ([2]; PO 10 mg/kg, Rat 2, 24 hr): BLQ (BLQ: Below limit of quantitation)
Plasma Concentration ([2]; PO 10 mg/kg, Rat 2, Pre-dose): BLQ (BLQ: Below limit of quantitation)
F ([2]; PO (10 mg/kg), Mean): 2.95%
t1/2z ([2]; PO (10 mg/kg), Mean): 74.4 min
F ([2]; PO (10 mg/kg), animal 801): 2.39%
t1/2z ([2]; PO (10 mg/kg), animal 801): 99 min
F ([2]; PO (10 mg/kg), animal 802): 3.50%
t1/2z ([2]; PO (10 mg/kg), animal 802): 49.8 min
concentration at 0.083 hr [2, 3]: 3030 ng/mL
concentration at 0.25 hr [2, 3]: 2060 ng/mL
concentration at 0.5 hr [2, 3]: 1140 ng/mL
concentration at 1 hr [2, 3]: 527 ng/mL
concentration at 2 hr [2, 3]: 113 ng/mL
concentration at 4 hr [2, 3]: 19 ng/mL
concentration at 6 hr ([2]; male, Sprague Dawley, rat, plasma, iv, 5 mg/kg, IV 5 mg/kg, Mean, 6 hr): 6.21 ng/mL
concentration at 8 h ([2]; male, Sprague Dawley, rat, plasma, iv, 5 mg/kg, IV 5 mg/kg, Mean, 8 hr): 2.41 ng/mL
concentration at 0.083 hr [2, 4]: 2710 ng/mL
concentration at 0.25 hr [2, 4]: 1990 ng/mL
concentration at 0.5 hr [2, 4]: 1210 ng/mL
concentration at 1 hr [2, 4]: 548 ng/mL
concentration at 2 hr [2, 4]: 123 ng/mL
concentration at 4 hr [2, 4]: 19.3 ng/mL
concentration at 6 hr ([2]; male, Sprague Dawley, rat, plasma, iv, 5 mg/kg, IV 5 mg/kg, Rat 1, 6 hr): 5.44 ng/mL
concentration at 8 h ([2]; male, Sprague Dawley, rat, plasma, iv, 5 mg/kg, IV 5 mg/kg, Rat 1, 8 hr): 2.64 ng/mL
concentration at 0.083 hr [2, 5]: 3350 ng/mL
concentration at 0.25 hr [2, 5]: 2130 ng/mL
concentration at 0.5 hr [2, 5]: 1060 ng/mL
concentration at 1 hr [2, 5]: 506 ng/mL
concentration at 2 hr [2, 5]: 104 ng/mL
concentration at 4 hr [2, 5]: 18.7 ng/mL
concentration at 6 hr ([2]; male, Sprague Dawley, rat, plasma, iv, 5 mg/kg, IV 5 mg/kg, Rat 2, 6 hr): 6.97 ng/mL
concentration at 8 h ([2]; male, Sprague Dawley, rat, plasma, iv, 5 mg/kg, IV 5 mg/kg, Rat 2, 8 hr): 2.19 ng/mL
AUC(0-inf) [2, 6]: 1860 ng·h/mL
AUC(0-t) [2, 6]: 1850 ng·h/mL
Cmax [2, 6]: 3030 ng/mL
Tmax [2, 6]: 4.8 min
MRT inf [2, 6]: 39.6 min
Vd [2, 6]: 5.21 L/kg
AUC(0-inf) [2, 7]: 1860 ng·h/mL
AUC(0-t) [2, 7]: 1860 ng·h/mL
Tmax [2, 7]: 4.8 min
MRT inf [2, 7]: 40.8 min
concentration at 0.083 hr [2, 8]: 35.2 ng/mL
concentration at 0.25 hr [2, 8]: 72.2 ng/mL
concentration at 0.5 hr [2, 8]: 63.6 ng/mL
concentration at 1 hr [2, 8]: 39.5 ng/mL
concentration at 2 hr [2, 8]: 14.1 ng/mL
concentration at 4 hr [2, 8]: 5.29 ng/mL
concentration at 6 h ([2]; male, Sprague Dawley, rat, plasma, po, 10 mg/kg, PO 10 mg/kg, Mean, 6 hr): 1.31 ng/mL
concentration at 0.083 hr [2, 9]: 42.4 ng/mL
concentration at 0.25 hr [2, 9]: 66.2 ng/mL
concentration at 0.5 hr [2, 9]: 35.7 ng/mL
concentration at 1 hr [2, 9]: 20.9 ng/mL
concentration at 2 hr [2, 9]: 13.8 ng/mL
concentration at 4 hr [2, 9]: 5.62 ng/mL
concentration at 6 hr ([2]; male, Sprague Dawley, rat, plasma, po, 10 mg/kg, PO 10 mg/kg, Rat 1, 6 hr): 2.62 ng/mL
concentration at 8 h ([2]; male, Sprague Dawley, rat, plasma, po, 10 mg/kg, PO 10 mg/kg, Rat 1, 8 hr, not kept for calculation): 148 ng/mL
concentration at 24 h ([2]; male, Sprague Dawley, rat, plasma, po, 10 mg/kg, PO 10 mg/kg, Rat 1, 24 hr, not kept for calculation): 4.66 ng/mL
concentration at 0.083 hr [2, 10]: 28.1 ng/mL
concentration at 0.25 hr [2, 10]: 78.1 ng/mL
concentration at 0.5 hr [2, 10]: 91.6 ng/mL
concentration at 1 hr [2, 10]: 58.1 ng/mL
concentration at 2 hr [2, 10]: 14.3 ng/mL
concentration at 4 hr [2, 10]: 4.96 ng/mL
AUC(0-inf) [2, 11]: 110 ng·h/mL
AUC(0-t) [2, 11]: 103 ng·h/mL
Cmax [2, 11]: 78.9 ng/mL
Tmax [2, 11]: 22.8 min
MRT inf [2, 11]: 97.8 min
AUC(0-inf) [2, 12]: 89 ng·h/mL
AUC(0-t) [2, 12]: 82.8 ng·h/mL
Cmax [2, 12]: 66.2 ng/mL
Tmax [2, 12]: 15 min
MRT inf [2, 12]: 122 min
AUC(0-inf) [2, 13]: 130 ng·h/mL
AUC(0-t) [2, 13]: 124 ng·h/mL
Cmax [2, 13]: 91.6 ng/mL
Tmax [2, 13]: 30 min
MRT inf [2, 13]: 73.2 min
Cmax [2, 14]: 2710 ng/mL
Vd [2, 14]: 5.39 L/kg
AUC(0-inf) [2, 15]: 1860 ng·h/mL
AUC(0-t) [2, 15]: 1850 ng·h/mL
Cmax [2, 15]: 3350 ng/mL
Tmax [2, 15]: 4.8 min
MRT inf [2, 15]: 37.8 min
Vd [2, 15]: 5.02 L/kg
EC50 (HIV-1): 1 to 10 nM
